Measurements from the supplement of paper PMC11061612.

Key:
Capivasertib = compound: C1CN(CCC1(C(=O)N[C@@H](CCO)C2=CC=C(C=C2)Cl)N)C3=NC=NC4=C3C=CN4 [Capivasertib]; conditions: max 10 µM
Procedure, shortened: (§1)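 Following 24 hours at 37°C and 5% CO2, cancer cell lines in 1536-well plates with 7.5 μl DMEM/F12 or RPMI and 10% FBS were dosed for 72 hours, final DMSO typically being 0.2%. CellTiter-Glo 2.0 luminescence, scaled between blank-well and DMSO-well means, gave the viability readout. Dose responses were fitted to a two-parameter logistic curve with a non-linear mixed effects model, and the single-agent IC50 was derived from this fit.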

AZD1775 = compound: C=CCn1c(=O)c2cnc(Nc3ccc(N4CCN(C)CC4)cc3)nc2n1-c1cccc(C(C)(C)O)n1 [AZD1775]
Procedure, shortened: as §1

Trametinib = compound: CC(=O)Nc1cccc(-n2c(=O)n(C3CC3)c(=O)c3c(Nc4ccc(I)cc4F)n(C)c(=O)c(C)c32)c1 [Trametinib]; conditions: max 1 µM
Procedure, shortened: as §1

Palbociclib = compound: CC(=O)c1c(C)c2cnc(Nc3ccc(N4CCNCC4)cn3)nc2n(C2CCCC2)c1=O [Palbociclib]; conditions: max 10 µM
Procedure, shortened: as §1

AZD1390 = compound: CC(C)n1c(=O)n(C)c2cnc3cc(F)c(-c4ccc(OCCCN5CCCCC5)nc4)cc3c21 [AZD1390]; conditions: max 0.3 µM
Procedure, shortened: as §1

Venetoclax = compound: CC1(C)CCC(CN2CCN(c3ccc(C(=O)NS(=O)(=O)c4ccc(NCC5CCOCC5)c([N+](=O)[O-])c4)c(Oc4cnc5[nH]ccc5c4)c3)CC2)=C(c2ccc(Cl)cc2)C1 [Venetoclax]; conditions: max 1 µM
Procedure, shortened: as §1

Dasatinib = compound: CC1=C(C(=CC=C1)Cl)NC(=O)C2=CN=C(S2)NC3=CC(=NC(=N3)C)N4CCN(CC4)CCO [Dasatinib]; conditions: max 2 µM
Procedure, shortened: as §1

SG3199 = compound: CC1=CN2[C@@H](C1)C=NC3=CC(=C(C=C3C2=O)OC)OCCCCCOC4=C(C=C5C(=C4)N=C[C@@H]6CC(=CN6C5=O)C)OC [SG3199]; conditions: max 0.001 µM
Procedure, shortened: as §1

AZD2811 = compound: CCN(CCO)CCCOc1ccc2c(Nc3cc(CC(=O)Nc4cccc(F)c4)[nH]n3)ncnc2c1 [AZD2811]; conditions: max 1 µM
Procedure, shortened: as §1

SN-38 = compound: CCc1c2c(nc3ccc(O)cc13)-c1cc3c(c(=O)n1C2)COC(=O)[C@]3(O)CC [SN-38]; conditions: max 0.3 µM
Procedure, shortened: as §1

AZD0156 = compound: CN(C)CCCOc1ccc(-c2ccc3ncc4c(c3c2)n(C2CCOCC2)c(=O)n4C)cn1 [AZD0156]
Procedure, shortened: as §1

AZD4320 = compound: CN(CC[C@H](CSC1=CC=CC=C1)NC2=C(C=C(C=C2)S(=O)(=O)NC(=O)C3=CC=C(C=C3)N4CCC(CC4)[C@H](C5=CC=CC=C5C6=CC=C(C=C6)Cl)O)S(=O)(=O)C(F)(F)F)CCO [AZD4320]; conditions: max 1 µM
Procedure, shortened: as §1

Alisertib = compound: COc1cc(Nc2ncc3c(n2)-c2ccc(Cl)cc2C(c2c(F)cccc2OC)=NC3)ccc1C(=O)O [Alisertib]; conditions: max 10 µM
Procedure, shortened: as §1

Gefitinib = compound: COc1cc2ncnc(Nc3ccc(F)c(Cl)c3)c2cc1OCCCN1CCOCC1 [Gefitinib]; conditions: max 10 µM
Procedure, shortened: as §1

Prexasertib = compound: COc1cccc(OCCCN)c1-c1cc(Nc2cnc(C#N)cn2)n[nH]1 [Prexasertib]; conditions: max 1 µM
Procedure, shortened: as §1

Doxorubicin = compound: COc1cccc2c1C(=O)c1c(O)c3c(c(O)c1C2=O)C[C@@](O)(C(=O)CO)C[C@@H]3O[C@H]1C[C@H](N)[C@H](O)[C@H](C)O1 [Doxorubicin]; conditions: max 1 µM
Procedure, shortened: as §1

AZD5153 = compound: COc1nnc2ccc(N3CCC(c4ccc(OCCN5CCN(C)C(=O)[C@H]5C)cc4)CC3)nn12 [AZD5153]; conditions: max 1 µM
Procedure, shortened: as §1

Lapatinib = compound: CS(=O)(=O)CCNCc1ccc(-c2ccc3ncnc(Nc4ccc(OCc5cccc(F)c5)c(Cl)c4)c3c2)o1 [Lapatinib]; conditions: max 10 µM
Procedure, shortened: as §1

AZD8186 = compound: C[C@@H](Nc1cc(F)cc(F)c1)c1cc(C(=O)N(C)C)cc2c(=O)cc(N3CCOCC3)oc12 [AZD8186]
Procedure, shortened: as §1

Crizotinib = compound: C[C@@H](Oc1cc(-c2cnn(C3CCNCC3)c2)cnc1N)c1c(Cl)ccc(F)c1Cl [Crizotinib]; conditions: max 10 µM
Procedure, shortened: as §1

Savolitinib = compound: C[C@@H](c1ccc2nccn2c1)n1nnc2ncc(-c3cnn(C)c3)nc21 [Savolitinib]; conditions: max 1 µM
Procedure, shortened: as §1

AZD6738 = compound: C[C@@H]1COCCN1C2=NC(=NC(=C2)C3(CC3)[S@](=N)(=O)C)C4=C5C=CNC5=NC=C4 [AZD6738]; conditions: max 10 µM
Procedure, shortened: as §1

AZD5991 = compound: Cc1c2c(nn1C)CSCc1cc(n(C)n1)CSc1cc(c3ccccc3c1)OCCCc1c(C(=O)O)n(C)c3c-2c(Cl)ccc13 [AZD5991]; conditions: max 1 µM
Procedure, shortened: as §1

AZD7648 = compound: Cc1cc2ncnn2cc1Nc1ncc2c(n1)n(C1CCOCC1)c(=O)n2C [AZD7648]; conditions: max 10 µM
Procedure, shortened: as §1

Taselisib = compound: Cc1nc(-c2cn3c(n2)-c2ccc(-c4cnn(C(C)(C)C(N)=O)c4)cc2OCC3)n(C(C)C)n1 [Taselisib]; conditions: max 10 µM
Procedure, shortened: as §1

Selumetinib = compound: Cn1cnc2c(F)c(Nc3ccc(Br)cc3Cl)c(C(=O)NOCCO)cc21 [Selumetinib]; conditions: max 10 µM
Procedure, shortened: as §1

MK-2206 = compound: NC1(c2ccc(-c3nc4ccn5c(=O)[nH]nc5c4cc3-c3ccccc3)cc2)CCC1 [MK-2206]; conditions: max 10 µM
Procedure, shortened: as §1

Olaparib = compound: O=C(c1cc(Cc2n[nH]c(=O)c3ccccc23)ccc1F)N1CCN(C(=O)C2CC2)CC1 [Olaparib]; conditions: max 10 µM
Procedure, shortened: as §1

Carboplatin = compound: C1CC(C1)(C(=O)[O-])C(=O)[O-].N.N.[Pt+2] [Carboplatin]; conditions: max 10 µM
Procedure, shortened: as §1

AZD5363 = compound: C1CN(CCC1(C(=O)N[C@@H](CCO)C2=CC=C(C=C2)Cl)N)C3=NC=NC4=C3C=CN4 [AZD5363]; conditions: max 10 µM
Procedure, shortened: as §1

Paclitaxel = compound: CC(=O)O[C@H]1C(=O)[C@@]2(C)[C@H]([C@H](OC(=O)c3ccccc3)[C@]3(O)C[C@H](OC(=O)[C@H](O)[C@@H](NC(=O)c4ccccc4)c4ccccc4)C(C)=C1C3(C)C)[C@]1(OC(C)=O)CO[C@@H]1C[C@@H]2O [Paclitaxel]; conditions: max 3 µM
Procedure, shortened: as §1

Etoposide = compound: COc1cc([C@@H]2c3cc4c(cc3[C@@H](O[C@@H]3O[C@@H]5CO[C@@H](C)O[C@H]5[C@H](O)[C@H]3O)[C@H]3COC(=O)[C@H]23)OCO4)cc(OC)c1O [Etoposide]; conditions: max 10 µM
Procedure, shortened: as §1

SRA737 = compound: N#Cc1cnc(Nc2cc(NC[C@H]3CNCCO3)c(C(F)(F)F)cn2)cn1 [SRA737]; conditions: max 10 µM
Procedure, shortened: as §1

Gemcitabine = compound: Nc1ccn([C@@H]2O[C@H](CO)[C@@H](O)C2(F)F)c(=O)n1 [Gemcitabine]; conditions: max 0.3 µM
Procedure, shortened: as §1

[1] = compound: O=C(Nc1ccc2[nH]nc(-c3ccncc3)c2c1)[C@@H]1CCN(CC(=O)N2CCN(c3ccc(-c4ncccn4)cc3)CC2)C1; conditions: max 5 µM
Procedure, shortened: as §1

5-Fluorouracil = compound: O=c1[nH]cc(F)c(=O)[nH]1 [5-Fluorouracil]; conditions: max 20 µM
Procedure, shortened: as §1

Cell Line	IC50, cell viability 72 h (Capivasertib)	IC50, cell viability 72 h (AZD1775; max 3 µM)	IC50, cell viability 72 h (Trametinib)	IC50, cell viability 72 h (Palbociclib)	IC50, cell viability 72 h (AZD1390)	IC50, cell viability 72 h (Venetoclax)	IC50, cell viability 72 h (Dasatinib)	IC50, cell viability 72 h (SG3199)	IC50, cell viability 72 h (AZD2811)	IC50, cell viability 72 h (SN-38)	IC50, cell viability 72 h (AZD0156; max 3 µM)	IC50, cell viability 72 h (AZD4320)	IC50, cell viability 72 h (Alisertib)	IC50, cell viability 72 h (Gefitinib)	IC50, cell viability 72 h (Prexasertib)	IC50, cell viability 72 h (Doxorubicin)	IC50, cell viability 72 h (AZD5153)	IC50, cell viability 72 h (Lapatinib)	IC50, cell viability 72 h (AZD8186; max 3 µM)	IC50, cell viability 72 h (Crizotinib)	IC50, cell viability 72 h (Savolitinib)	IC50, cell viability 72 h (AZD6738)	IC50, cell viability 72 h (AZD5991)	IC50, cell viability 72 h (AZD7648)	IC50, cell viability 72 h (Taselisib)	IC50, cell viability 72 h (Selumetinib)	IC50, cell viability 72 h (MK-2206)	IC50, cell viability 72 h (Olaparib)	IC50, cell viability 72 h (AZD1775; max 1 µM)	IC50, cell viability 72 h (AZD0156; max 1 µM)	IC50, cell viability 72 h (Carboplatin)	IC50, cell viability 72 h (AZD5363)	IC50, cell viability 72 h (Paclitaxel)	IC50, cell viability 72 h (Etoposide)	IC50, cell viability 72 h (AZD8186; max 10 µM)	IC50, cell viability 72 h (SRA737)	IC50, cell viability 72 h (Gemcitabine)	IC50, cell viability 72 h [1]	IC50, cell viability 72 h (5-Fluorouracil)
SW756 (Cervical Carcinoma)	> 10 µM	> 3 µM	> 1 µM	> 10 µM	> 0.3 µM	> 1 µM	> 2 µM	> 0.001 µM	> 1 µM	0.0323 µM	> 3 µM	> 1 µM	> 10 µM	> 10 µM	> 1 µM	> 1 µM	> 1 µM	> 10 µM	> 3 µM	> 10 µM	> 1 µM	> 10 µM	> 1 µM	> 10 µM	> 10 µM	> 10 µM	> 10 µM	> 10 µM											
NCI-H1694 (Small Cell Lung Carcinoma)	> 10 µM		> 1 µM	> 10 µM	> 0.3 µM	> 1 µM	> 2 µM	> 0.001 µM	> 1 µM	0.00395 µM		0.462 µM	> 10 µM	> 10 µM	0.0669 µM	0.727 µM	> 1 µM	> 10 µM	> 3 µM	> 10 µM	> 1 µM	9.06 µM	0.109 µM	> 10 µM	> 10 µM	> 10 µM		> 10 µM	> 1 µM	> 1 µM									
NCI-H211 (Small Cell Lung Carcinoma)		0.628 µM	> 1 µM	6.13 µM	> 0.3 µM	0.113 µM	> 2 µM		0.0195 µM	0.00231 µM	> 3 µM	0.0233 µM		> 10 µM			0.0302 µM	8.54 µM		1.92 µM	> 1 µM	5.99 µM	0.307 µM	> 10 µM	> 10 µM	> 10 µM	> 10 µM	3.58 µM			> 10 µM	9.9 µM	< 0.003 µM	0.342 µM	> 10 µM	> 10 µM	0.00872 µM	> 5 µM	> 20 µM
KM-H2 (Hodgkin's Lymphoma)	> 10 µM	0.615 µM	> 1 µM	> 10 µM	> 0.3 µM	> 1 µM	> 2 µM	> 0.001 µM	> 1 µM	0.0488 µM	> 3 µM	> 1 µM	> 10 µM	> 10 µM	0.0291 µM	0.534 µM	> 1 µM	> 10 µM	> 3 µM	> 10 µM	> 1 µM	4.62 µM	> 1 µM	> 10 µM	> 10 µM	> 10 µM	> 10 µM	> 10 µM											
COR-L23 (Non-Small Cell Lung Carcinoma)	> 10 µM	0.591 µM	> 1 µM	> 10 µM	> 0.3 µM	> 1 µM	> 2 µM	> 0.001 µM	> 1 µM	0.131 µM	> 3 µM	> 1 µM	> 10 µM	> 10 µM	0.216 µM	> 1 µM	> 1 µM	> 10 µM	> 3 µM	> 10 µM	> 1 µM	> 10 µM	> 1 µM	> 10 µM	5.74 µM	> 10 µM		> 10 µM											
SUIT-2 (Pancreatic Carcinoma)	> 10 µM	1.86 µM	0.478 µM	> 10 µM	> 0.3 µM	> 1 µM	> 2 µM	> 0.001 µM	> 1 µM	0.0326 µM	> 3 µM	> 1 µM	> 10 µM	> 10 µM	0.178 µM	> 1 µM	> 1 µM	> 10 µM	> 3 µM	> 10 µM	> 1 µM	> 10 µM	> 1 µM	> 10 µM	> 10 µM	> 10 µM	> 10 µM	> 10 µM											
